Results on 3 compounds are retold here after article PMC11277004, “Di- and Triselenoesters—Promising Drug Candidates for the Future Therapy of Triple-Negative Breast Cancer” (International Journal of Molecular Sciences, 2024).

What all share (assay type): cell-based, human
In series [1] the test system is MCF-7 and MDA-MB-231 breast cancer cells. Briefly: Western immunoblot of Akt and AMPK. Particulars: 0.5 and 1 μM, 24 h. How it is done: (§1) Protein concentrations in the samples were determined using the Lowry method. Samples were prepared containing equal amounts of protein (30 μg/lane) and an appropriate amount of Laemmli buffer (120 mM Tris-HCl, 20% glycerol, 0.4% SDS, and 0.02% bromophenol blue, pH 6.8) containing 100 mM 1,4-dithiothreitol (DTT; Roche, Basel, Switzerland). Samples were denatured at 95 °C for 10 min. The proteins were separated using the SDS-PAGE method described by Laemmli. Proteins were separated on 12% SDS-PAGE gels. […] Transfer conditions were 250 mA, at 4-8 °C, overnight in freshly prepared Towbin buffer. Membranes were blocked with 5% non-fat dried milk (Santa Cruz Biotechnology, Dallas, Texas, USA) in TBS-T (20 mM Tris, 150 mM NaCl, 0.1% Tween-20, pH 7.6) for 1 h at room temperature with gentle shaking. After the blocking step, membranes were washed four times with TBS-T (4 × 15 min) and incubated with primary monoclonal antibodies (against β-actin, p53 (both from Santa Cruz Biotechnology, Dallas, TX, USA), Akt, AMPK (both from BD Transduction Laboratories, San Jose, CA, USA), Bax, caspase 7, and caspase 9 (all from Cell Signaling Technology, Danvers, MA, USA)). Membranes were incubated with primary antibodies overnight at 4 °C. […]

A short description of series [2]: Viability (MTT) and DNA biosynthesis, summary statements over the tested cell lines. The following applies: human; MTT, 24 h; range over the tested cell lines; read-out: IC50, cytotoxic activity (range over cell lines). How it is done:
The MTT assay was used to determine the cytotoxic effects of the compounds in the study on MCF-7 and MDA-MB-231 breast cancer cells as well as MCF-10A normal human breast epithelial cells based on Carmichael’s method. All cultured cell lines were treated with varied concentrations of the tested compounds in the medium (0.5–5 µM) and incubated for 24 h in an incubator providing optimal conditions for cell culture growth (37 °C temperature, 5% CO2, and 90–95% humidity) in 6-well plates (baseline seeding density: 5 × 10^5 cells/well). After this time, the medium was removed, and the cell monolayer was washed with warm phosphate-buffered saline (PBS) without calcium and magnesium. In the next step, PBS and MTT solution in PBS (5 mg/mL) were added to each well to obtain a final MTT concentration of 0.5 mg/mL, and then the cells were incubated for 4 h (37 °C temperature, 5% CO2, 90–95% humidity). After the incubation period, the contents of each well were removed, 1 mL of DMSO was added to dissolve the formazan, and then the plate with the added DMSO was mixed for 5–10 min on a microplate shaker (Boeco, Hamburg, Germany). Then, 10 µL of Sorensen’s glycine buffer (a solution of 0.1 M glycine and 0.1 M sodium chloride adjusted to pH 10.5 with 0.1 M sodium hydroxide) was added. The absorbance of the obtained solution was immediately measured at a wavelength of λ = 570 nm using a Thermo Scientific Evolution 201 UV–VIS spectrophotometer (Thermo Fisher Scientific, Waltham, MA, USA). The absorbance result obtained in the control cells (without the addition of the tested compounds) was taken as 100%, while the viability of cells incubated with the tested compounds was presented as a percentage of the control value.
The study of the antiproliferative properties (intensity of [^3H]-thymidine incorporation into cell DNA) of the tested derivatives against tested cell lines (MCF-7, MDA-MB-231, MCF-10A) was performed after 24 h incubation with varied concentrations of the tested compounds in the medium (0.5–5 µM) in 6-well plates (baseline seeding density: 5 × 10^5 cells/well). After 24 h the medium was removed, the cells were washed with PBS (Corning, Kennebunk, ME, USA), and a fresh medium was added. […] Radioactivity was measured using the Scintillation Counter 1900 TR, TRI-CARB (Packard, Perkin Elmer, Inc., San Jose, CA, USA). The intensity of DNA biosynthesis in the analyzed cells was expressed in terms of dpm/well. The result of the radioactivity measurement in the control cells (without the addition of tested compounds) was taken as 100%, while the values of cells incubated with the tested compounds were presented as a percentage of the control value.

For series [3], the system named is breast cancer cells (MCF-7 and MDA-MB-231). Briefly: Apoptosis induction, summary statements. The protocol:
(§2) The FITC Annexin V Apoptosis Detection Kit II (BD Pharmingen, San Diego, CA, USA) and a flow cytometer (BD FACSCanto II, BD Biosciences Systems, San Jose, CA, USA) were used in this evaluation. The assay was performed according to the manufacturer’s instructions. Flow cytometer calibration was performed by preparing two controls—a positive and a negative control. […] The negative control was cells that were not treated with any of the proapoptotic agents. First, in the cells treated with the tested compounds as well as the controls, the medium was removed, and the cells were washed twice with cold PBS. Subsequently, the cells were resuspended in the binding buffer included in the kit at a concentration of 1 × 10^6 cells/mL. From each sample, 100 µL of cell suspension was taken and transferred to test tubes, to which 5 µL each of FITC annexin V and propidium iodide (PI) were then added. The contents of the test tubes were gently vortexed and incubated for 15 min at room temperature, protected from light. After the required time, the contents of the test tubes were made up to 500 µL with binding buffer and immediately analyzed in a flow cytometer (10,000 events measured). After the flow cytometer readout, the results were analyzed using the FACSDiva 6.0 software (BD Biosciences Systems, San Jose, CA, USA). […]

The subject of series [4] is MCF-7 and MDA-MB-231 breast cancer cells. The experiment in a line: Western immunoblot of Bax, caspase 7 and 9, p53. The following applies: 0.5 and 1 μM, 24 h. The protocol:
as §1

Series [5] relates to MCF-10A normal breast epithelial cells. The experiment in a line: Apoptosis induction, annexin V-FITC/PI flow cytometry, MCF-10A. Particulars: especially at 1 µM, 24 h. The protocol:
as §2

Take `N.N.[Cl][Pt][Cl]` [Cisplatin, reference compound]: in series [1], the “expression of Akt and AMPK (Western blot, in words)” value is “did not significantly affect”.

Consider `CC(=O)C[Se]C(=O)c1ccc(C(=O)[Se]CC(C)=O)cc1` [EDAG-1, Se,Se-bis(2-oxopropyl) benzene-1,4-bis(carboselenoate)], for which the concentration for half-maximal inhibition (IC50) at 24 h in series [2] fell in the range of 410 to 710 nM. Moreover, the “development of necrosis in the breast cancer cell lines (in words)” value in series [3] is on record as “did not affect the development of necrosis”. Also, in series [4], the “expression of Bax, caspase 7 and 9, p53 (Western blot, in words)” value is on record as “slightly weaker effect”.

Turning to `CC(=O)C[Se]C(=O)c1cc(C(=O)[Se]CC(C)=O)cc(C(=O)[Se]CC(C)=O)c1` [EDAG-8, Se,Se,Se-tris-(2-oxopropyl) benzene-1,3,5-tris-(carboxyselenoate)], in series [2], the IC50 at 24 h lay within 410 to 710 nM. For the same compound, the “development of necrosis in the breast cancer cell lines (in words)” value in series [3] is recorded as “did not affect the development of necrosis”. Besides, in series [4], the “expression of Bax, caspase 7 and 9, p53 (Western blot, in words)” value was “most active”. The “expression of Akt and AMPK (Western blot, in words)” value in series [1] is given as “most active”. Besides, the “necrotic cells (in words)” value in series [5] was “increase in the number of necrotic cells”.
